# Source: patent US20060004028A1, “Novel PARP inhibitor” (MOCHIDA PHARMACEUTICAL CO., LTD., priority 2002, published 2006)
# Columns and labels:
# [1] = biological target: T1, PARP (Homo sapiens, UniProt P09874); test: Measurement of PARP inhibitory activity (PARP Inhibition Assay kit, ADP-ribosylated histone); type: biochemical; conditions: HSA PARP Enzyme, histone-coated plate, absorbance at 450 nm
# T1 construct: purchased Travigen (Trevigen) 4669-96-K
# Description: PARP activity is determined by measuring the amount of ADP-ribosylated histone protein applied onto an assay plate according to the manual of a measurement kit “PARP Inhibition Assay” (produced by Travigen, catalog number: 4669-96-K). Specifically, 25 μL/well of “2×PARP cocktail” (containing 800 μM of NAD, 50 μM of biotinylated NAD, and denatured DNA) was added to each well of assay plates (96-well multiplate) previously coated with histone protein. Further added was 12.5 μL/well of test compound diluted with “PARP Buffer” (50 mM Tris-hydrochloric acid buffer (pH 8.0) containing 25 mM of MgCl2) and 12.5 μL/well (final concentration: 0.3 unit/50 μL/well) of “HSA PARP Enzyme” diluted with “PARP Buffer” in that order. The mixture was allowed to react at room temperature for 30 minutes. Enzyme reaction of PARP was suspended by discarding the reaction solution and rinsing with a phosphate buffer. Then, 50 μL/well of “Strep-HRP” (streptavidin-labeled horseradish peroxidase) was added and allowed to react at 37° C. for 20 to 30 minutes to bind to biotin-labeled ADP-ribosylated histone. After the reaction solution was discarded, resultings were rinsed with a phosphate buffer, and 50 μL/well of calorimetric substrate TACS-Sapphire was added to the mixture to react at room temperature for 5 to 10 minutes in the dark.
# The reaction was terminated by adding 50 μL/well of 0.2 N hydrochloric acid solution, and the absorbance at 450 nm was measured with a microplate reader.
# [2] = tested on: U937 cells; test: Inhibitory effect against active oxygen-induced cell injury with U937 cells; type: cell-based; conditions: propidium iodide fluorescence
# Description: U937 cells were suspended in RPMI 1640 without serum, and were seeded at a concentration of 1×10^4 cells/50 μL/well in a solid assay plate (produced by Corning, black, tissue culture treated, Type: 3916). After adding 1 μL/well of test compound solution in DMSO, 50 μL/well of 20 mM hydrogen peroxide solution was added, followed by incubation at 37° C. for 3 hours in an atmosphere of 5% CO2. Then, 2 μL/well of 1.5 mM propidium iodide solution was added and incubation was further carried out at 37° C. for 1 hour. The fluorescence was measured with a fluorescence plate reader ARVO (excitation wavelength: 530 nm, fluorescence wavelength: 620 nm) to investigate hydrogen peroxide solution-induced necrosis inhibition.
# [3] = Homo sapiens, U-937, hydrogen peroxide-induced necrosis
# T1 sequence (P09874 whole entry): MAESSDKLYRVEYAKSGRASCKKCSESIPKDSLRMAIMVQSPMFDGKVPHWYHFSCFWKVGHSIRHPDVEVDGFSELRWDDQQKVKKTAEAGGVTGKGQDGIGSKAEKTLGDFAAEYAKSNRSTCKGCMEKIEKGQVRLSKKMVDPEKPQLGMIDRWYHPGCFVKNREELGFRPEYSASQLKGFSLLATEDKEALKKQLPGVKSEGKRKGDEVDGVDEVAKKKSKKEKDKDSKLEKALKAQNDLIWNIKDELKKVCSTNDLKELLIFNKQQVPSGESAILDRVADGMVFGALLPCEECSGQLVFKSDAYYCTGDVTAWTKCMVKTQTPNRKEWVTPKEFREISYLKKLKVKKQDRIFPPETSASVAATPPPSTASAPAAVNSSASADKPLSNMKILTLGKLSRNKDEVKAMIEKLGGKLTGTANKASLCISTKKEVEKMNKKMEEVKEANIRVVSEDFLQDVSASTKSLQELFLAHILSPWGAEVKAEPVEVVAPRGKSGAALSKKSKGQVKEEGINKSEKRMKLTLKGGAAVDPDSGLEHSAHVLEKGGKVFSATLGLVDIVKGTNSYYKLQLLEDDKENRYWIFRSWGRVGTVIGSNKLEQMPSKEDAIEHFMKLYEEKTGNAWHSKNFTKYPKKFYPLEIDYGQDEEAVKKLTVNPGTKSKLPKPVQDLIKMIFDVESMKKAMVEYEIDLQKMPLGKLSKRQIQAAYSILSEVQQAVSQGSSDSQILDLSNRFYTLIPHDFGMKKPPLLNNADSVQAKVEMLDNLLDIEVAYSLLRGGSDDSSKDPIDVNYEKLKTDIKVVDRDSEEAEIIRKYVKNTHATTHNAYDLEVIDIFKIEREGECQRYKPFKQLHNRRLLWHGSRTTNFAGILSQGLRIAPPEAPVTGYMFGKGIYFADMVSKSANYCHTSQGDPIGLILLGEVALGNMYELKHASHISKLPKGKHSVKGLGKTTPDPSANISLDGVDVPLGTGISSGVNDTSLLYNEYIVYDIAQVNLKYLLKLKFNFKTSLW
IC50 [1],melting point,Compound,"IC50 [2, 3]",IC50 ([2]; hydrogen peroxide-induced necrosis)
6 nM,96.8 to 97.6 °C,"N[C@H]1CCN2c3c(cccc31)C(=O)N[C@@H]2c1ccc(OCCO)cc1 (racemic) [Example 93, Mixture of (3S,7S)-7-amino-3-(4-hydroxyethoxyphenyl)-6,7-dihydro-3H,5H-pyrido[3,2,1-ij]quinazoline-1(2H)-one and (3R,7R)-7-amino-3-(4-hydroxyethoxyphenyl)-6,7-dihydro-3H,5H-pyrido[3,2,1-ij]quinazoline-1(2H)-one]",,
42 nM,128.5 to 137.4 °C,"COc1ccc([C@H]2NC(=O)c3cccc4c3N2CC[C@@H]4N)cc1F (racemic) [Example 99, Mixture of (3S,7S)-7-amino-3-(3-fluoro-4-methoxyphenyl)-6,7-dihydro-3H,5H-pyrido[3,2,1-ij]quinazoline-1(2H)-one and (3R,7R)-7-amino-3-(3-fluoro-4-methoxyphenyl)-6,7-dihydro-3H,5H-pyrido[3,2,1-ij]quinazoline-1(2H)-one]",,
170 nM,127 to 131.2 °C,"N[C@H]1CCN2c3c(cccc31)C(=O)N[C@@H]2c1cccnc1 (racemic) [Example 100, Mixture of (3S,7S)-7-amino-3-(3-pyridyl)-6,7-dihydro-3H,5H-pyrido[3,2,1-ij]quinazoline-1(2H)-one and (3R,7R)-7-amino-3-(3-pyridyl)-6,7-dihydro-3H,5H-pyrido[3,2,1-ij]quinazoline-1(2H)-one]",,
49 nM,237.8 to 239.7 °C,"CN(C)c1ccc([C@@H]2NC(=O)c3cccc4c3N2CC[C@@H]4N)cc1 (racemic) [Example 129, Mixture of (3R,7S)-7-amino-3-(4-N,N-dimethylaminophenyl)-6,7-dihydro-3H,5H-pyrido[3,2,1-ij]quinazoline-1(2H)-one and (3S,7R)-7-amino-3-(4-N,N-dimethylaminophenyl)-6,7-dihydro-3H,5H-pyrido[3,2,1-ij]quinazoline-1(2H)-one]",,
58 nM,139.7 to 145.9 °C,"COc1ccc(C2NC(=O)c3cccc4c3N2CCC4N)cc1 (stereo not shown) [Example 4, 7-amino-3-(4-methoxyphenyl)-6,7-dihydro-3H,5H-pyrido[3,2,1-ij]quinazolinone-1(2H)-one]",610 nM,
240 nM,198.8 to 209.3 °C,"O=C1CCN2c3c1cccc3C(=O)NC2c1ccc([N+](=O)[O-])cc1 (stereo not shown) [Example 17, 3-(4-nitrophenyl)-6,7-dihydro-3H,5H-pyrido[3,2,1-ij]quinazoline-1,7(2H)-dione]",1200 nM,
,260.3 to 261.6 °C,"COc1ccc(C2NC(=O)c3cccc4c3N2CCC4=NO)cc1F (stereo not shown) [Example 66, 3-(3-fluoro-4-methoxyphenyl)-7-hydroxyimino-6,7-dihydro-3H,5H-pyrido[3,2,1-ij]quinazoline-1(2H)-one]",1700 nM,
,210.6 to 217.2 °C,O=C1NC(c2ccc(Cl)cc2)N2CCC(=NO)c3cccc1c32 (stereo not shown) [Example 78],,
,230 to 236.9 °C,"O=C1NC(c2ccc(Br)cc2)N2CCC(=NO)c3cccc1c32 (stereo not shown) [Example 79, 3-(4-bromophenyl)-7-hydroxyimino-6,7-dihydro-3H,5H-pyrido[3,2,1-ij]quinazoline-1(2H)-one]",,
,143.3 to 154.6 °C,"COc1ccc(C2NC(=O)c3cccc4c3N2CCC4)cc1 (stereo not shown) [Example 103, 3-(4-methoxyphenyl)-6,7-dihydro-3H,5H-pyrido[3,2,1-ij]quinazoline-1(2H)-one]",,
,232.3 to 238.7 °C,"NC1CCN2c3c(cccc31)C(=O)NC2c1ccc(C(=O)O)cc1 (stereo not shown) [Example 127, 7-amino-3-(4-carboxyphenyl)-6,7-dihydro-3H,5H-pyrido[3,2,1-ij]quinazolinone-1-(2H)-one]",,
,201.4 to 202.9 °C,"COc1ccc(C2NC(=O)c3cccc4c3N2CCC4NC(=O)c2ccc(N(C)C)cc2)cc1 (stereo not shown) [Example 132, 7-(4-N,N-dimethylamino)benzoylamino-3-(4-methoxyphenyl)-6,7-dihydro-3H,5H-pyrido[3,2,1-ij]quinazoline-1(2H)-one]",,
,186 to 187.2 °C,"COc1ccc(C2NC(=O)c3cccc4c3N2CCC4NC(=O)CCN2CCCCC2)cc1 (stereo not shown) [Example 133, 7-[3-(piperidine-1-yl)propanoyl]amino-3-(4-methoxyphenyl)-6,7-dihydro-3H,5H-pyrido[3,2,1-ij]quinazoline-1(2H)-one]",,
,252.3 to 253.1 °C,"COc1ccc(C2NC(=O)c3cccc4c3N2CCC4NC(=O)C2CCN(C)CC2)cc1 (stereo not shown) [Example 134, 7-(1-methylpiperidine-4-yl)carbonylamino-3-(4-methoxy-phenyl)-6,7-dihydro-3H,5H-pyrido[3,2,1-ij]quinazoline-1(2H)-one]",,
,188.2 to 192.4 °C,"COc1ccc(C2NC(=O)c3cccc4c3N2CCC4N(C)C)cc1 (stereo not shown) [Example 135, 7-dimethylamino-3-(4-methoxyphenyl)-6,7-dihydro-3H,5H-pyrido[3,2,1-ij]quinazoline-1(2H)-one]",,
,161.4 to 166.6 °C,"COc1ccc(C2NC(=O)c3cccc4c3N2CCC4NC(=O)CN(C)C)cc1 (stereo not shown) [Example 136, 7-(N,N-dimethylaminoacetyl)amino-3-(4-methoxyphenyl)-6,7-dihydro-3H,5H-pyrido[3,2,1-ij]quinazoline-1(2H)-one]",,
120 nM,,"Mixture of (3S,7S)-7-amino-3-(3,4-difluorophenyl)-6,7-dihydro-3H,5H-pyrido[3,2,1-ij]quinazoline-1(2H)-one and (3R,7R)-7-amino-3-(3,4-difluorophenyl)-6,7-dihydro-3H,5H-pyrido[3,2,1-ij]quinazoline-1(2H)-one [Example 122]",,
110 nM,,"Mixture of (3S,7S)-7-amino-3-(4-bromophenyl)-6,7-dihydro-3H,5H-pyrido[3,2,1-ij]quinazoline-1(2H)-one and (3R,7R)-7-amino-3-(4-bromophenyl)-6,7-dihydro-3H,5H-pyrido[3,2,1-ij]quinazoline-1(2H)-one [Example 123]",,300 nM
